The values that follow come from patent US20250340457A1, “SYSTEMS AND METHODS FOR EXTRACTION OF FLUORINATED HYDROCARBONS” (Khalifa University of Science and Technology, priority 2024, published 2025).

Converted amounts (≈) assume the structure as drawn. Like-named read-outs stand apart in the source and are kept apart here.

The nature of series [1]: Thermogravimetric analysis (onset decomposition temperature). The format is physicochemical. The source says:
FIG. 6B illustrates thermogravimetric profiles of TOPO, LauA, and TOPO: LauA (1:1), according to some embodiments. Thermogravimetric analysis is another essential solvent characterization method and is vital for identifying the maximum operational temperature range of a solvent. The onset decomposition temperature (Tonset) marks the start of a noticeable weight loss, indicating initial thermal degradation. Table 3 lists the onset temperatures for TOPO: LauA (1:1), and its thermogravimetric profile is shown in FIG. 6B along with the profiles of pure TOPO and lauric acid for comparison. Hydrogen bonding plays an important role in DES stability by reducing molecular volatility and increasing the energy needed for decomposition. […] This intermediate Tonset reflects the delicate balance of H-bonding strength in the DES that is affected from both the stability of the individual components and the new interactions they form when combined.

For series [2] the following is noted: cited from earlier work.
The conditions of series [3]: cited from earlier work. The source holds these as a separate data set.
For series [4] the following is noted: 25° C.; cited from earlier work.
The test system of another series is rat. The note with it: cited from earlier work.

With `CCCCCCCCCCCC(=O)O` [Lauric acid, lauric acid], in series [1], the “Onset decomposition temperature (Tonset)” value turned out to be 207 °C. Besides, the water solubility in series [2] is 0.4 µg/mL (≈ 2 µM).

As to `O=S(=O)(O)C(F)(F)C(F)(F)C(F)(F)C(F)(F)C(F)(F)C(F)(F)C(F)(F)C(F)(F)F` [PFOS, perfluorooctane sulfonic acid], the serum elimination half-lives in series [3] is listed as 3.8 years.

`Cc1ccc(C(C)C)c(O)c1` [thymol]: in series [4], the inherent density was 0.967 g/mL.

Take `C[N+](C)(C)CCO.[Cl-]` [choline chloride, reference compound]: the “LD50 (oral, rat)” value in the series on rat (oral) is given as 3,900 mg/kg.

For the compound `CCCCCCCCP(=O)(CCCCCCCC)CCCCCCCC` [TOPO, trioctylphosphine oxide], in series [1], the “Onset decomposition temperature (Tonset)” value is 281 °C. In addition, the water solubility in series [2] is 0.15 µg/mL (≈ 0.388 µM). Also, in the series with rat (in vivo, po), the “LD50 (oral, rat)” value was 2,000 mg/kg.

`O=C(O)C(F)(F)C(F)(F)C(F)(F)C(F)(F)C(F)(F)C(F)(F)C(F)(F)F` [PFOA, perfluorooctanoic acid]: the serum elimination half-lives in series [3] is listed as 5.4 years.
